Source: PubChem BioAssay AID248 (DTP/NCI, 2004)
Inconclusive results and toxic doses are left out. Rule as the data show it: active = T/C of 150% or more; inactive = T/C below 125%.

System: L1210 leukemia ip in BDF1 mice, survival T/C
Assay: NCI In Vivo Anticancer Drug Screen. Data for tumor model L1210 Leukemia (intraperitoneal) in B6D2F1 (BDF1) mice
Conditions: endpoint: mean survival time, higher = longer survival
How it was run: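 Transplanted-tumor mice were given test agent; controls received vehicle only. Survival readings from the two groups were divided (treated over control).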

[1] = dose: 100.0 mg/kg/injection, schedule: Q04DX003 (ip), vehicle: Klucel (hydroxypropylcellulose) (HPC)
[2] = dose: 200.0 mg/kg/injection, schedule: Q04DX003 (ip), vehicle: Klucel (hydroxypropylcellulose) (HPC)
[3] = dose: 400.0 mg/kg/injection, schedule: Q04DX003 (ip), vehicle: Klucel (hydroxypropylcellulose) (HPC)
[4] = dose: 100.0 mg/kg/injection, schedule: Q01DX009 (ip), vehicle: saline with Tween-80
[5] = dose: 200.0 mg/kg/injection, schedule: Q01DX009 (ip), vehicle: saline with Tween-80
[6] = dose: 400.0 mg/kg/injection, schedule: Q01DX009 (ip), vehicle: saline with Tween-80
[7] = dose: 100.0 mg/kg/injection, schedule: Q01DX009 (ip), vehicle: Klucel (hydroxypropylcellulose) (HPC)
[8] = dose: 200.0 mg/kg/injection, schedule: Q01DX009 (ip), vehicle: Klucel (hydroxypropylcellulose) (HPC)
[9] = dose: 400.0 mg/kg/injection, schedule: Q01DX009 (ip), vehicle: Klucel (hydroxypropylcellulose) (HPC)
[10] = dose: 100.0 mg/kg/injection, schedule: Q01DX001 (ip), vehicle: carboxymethylcellulose (CMC)
[11] = dose: 200.0 mg/kg/injection, schedule: Q01DX001 (ip), vehicle: carboxymethylcellulose (CMC)
[12] = dose: 400.0 mg/kg/injection, schedule: Q01DX001 (ip), vehicle: carboxymethylcellulose (CMC)
[13] = dose: 100.0 mg/kg/injection, schedule: Q04DX002 (ip), vehicle: Klucel (hydroxypropylcellulose) (HPC)
[14] = dose: 200.0 mg/kg/injection, schedule: Q04DX002 (ip), vehicle: Klucel (hydroxypropylcellulose) (HPC)
[15] = dose: 400.0 mg/kg/injection, schedule: Q04DX002 (ip), vehicle: Klucel (hydroxypropylcellulose) (HPC)
[16] = dose: 50.0 mg/kg/injection, schedule: Q01DX009 (ip), vehicle: Klucel (hydroxypropylcellulose) (HPC)

Measured: T/C

COc1ccc(CC(N)C(=O)OC(C)C)cc1N(CCCl)CCCl (stereo unspecified)
inactive: dose: 1.5 mg/kg/injection, schedule: Q01DX001 (ip), vehicle: saline 108 % of control | dose: 3.0 mg/kg/injection, schedule: Q01DX001 (ip), vehicle: saline 113 % of control | dose: 6.0 mg/kg/injection, schedule: Q01DX001 (ip), vehicle: saline 97 % of control

Cc1nc(SCc2ccccc2)[nH]c(=O)c1CC(C)O (stereo unspecified)
inactive: [1] 104 % of control | [2] 97 % of control | [3] 104 % of control

COc1ccc(NC(=O)Nc2ccc(C3=NCCCN3)cc2)cc1NC(=O)Nc1ccc(C2=NCCCN2)cc1
inactive: dose: 62.0 mg/kg/injection, schedule: Q01DX Z (ip), vehicle: carboxymethylcellulose (CMC) 115 % of control | dose: 62.0 mg/kg/injection, schedule: Q01DX Z (oral), vehicle: carboxymethylcellulose (CMC) 104 % of control | dose: 125.0 mg/kg/injection, schedule: Q01DX Z (oral), vehicle: carboxymethylcellulose (CMC) 98 % of control | dose: 250.0 mg/kg/injection, schedule: Q01DX Z (oral), vehicle: carboxymethylcellulose (CMC) 104 % of control | dose: 500.0 mg/kg/injection, schedule: Q01DX Z (oral), vehicle: carboxymethylcellulose (CMC) 100 % of control
active: dose: 250.0 mg/kg/injection, schedule: Q01DX Z (ip), vehicle: carboxymethylcellulose (CMC) 150 % of control

O=C1C=C(O)c2ccccc2C1=O
inactive: dose: 10.0 mg/kg/injection, schedule: Q01DX Z (ip), vehicle: other 98 % of control | dose: 12.5 mg/kg/injection, schedule: Q04DX003 (ip), vehicle: saline with Tween-80 98 % of control | dose: 20.0 mg/kg/injection, schedule: Q01DX Z (ip), vehicle: other 88 % of control | dose: 25.0 mg/kg/injection, schedule: Q04DX003 (ip), vehicle: saline with Tween-80 106 % of control | dose: 30.0 mg/kg/injection, schedule: Q01DX Z (ip), vehicle: other 90 % of control | dose: 31.2 mg/kg/injection, schedule: Q01DX Z (ip), vehicle: other 97 % of control | dose: 40.0 mg/kg/injection, schedule: Q01DX Z (ip), vehicle: other 90 % of control | dose: 50.0 mg/kg/injection, schedule: Q04DX003 (ip), vehicle: saline with Tween-80 92 % of control

O=C1OC(=O)C2CC(Cl)C(Cl)CC12 (stereo unspecified)
inactive: [4] 89 % of control | dose: 100.0 mg/kg/injection, schedule: Q04DX003 (ip), vehicle: saline with Tween-80 89 % of control | [5] 86 % of control | dose: 200.0 mg/kg/injection, schedule: Q04DX003 (ip), vehicle: saline with Tween-80 100 % of control | [6] 89 % of control | dose: 400.0 mg/kg/injection, schedule: Q04DX003 (ip), vehicle: saline with Tween-80 104 % of control

O=S(=O)(Nc1ccc(F)cc1)c1ccccc1
inactive: [7] 96 % of control | [1] 103 % of control | [8] 102 % of control | [2] 95 % of control | [9] 105 % of control | [3] 93 % of control

O=C(O)/C(=C\c1ccc(Cl)cc1)c1ccc(Cl)cc1
inactive: [7] 104 % of control | [1] 95 % of control | [8] 89 % of control | [2] 91 % of control | [3] 95 % of control

O=S(=O)(NC1C2CC3C1N3N2)c1ccccc1 (stereo unspecified)
inactive: dose: 50.0 mg/kg/injection, schedule: Q04DX003 (ip), vehicle: saline 90 % of control | dose: 100.0 mg/kg/injection, schedule: Q04DX003 (ip), vehicle: saline 114 % of control | dose: 200.0 mg/kg/injection, schedule: Q04DX003 (ip), vehicle: saline 98 % of control

COC1=C(C(=O)O)P(C)(=O)CC1 (stereo unspecified)
inactive: dose: 50.0 mg/kg/injection, schedule: Q04DX002 (ip), vehicle: saline with Tween-80 95 % of control | dose: 100.0 mg/kg/injection, schedule: Q04DX002 (ip), vehicle: saline with Tween-80 98 % of control | dose: 200.0 mg/kg/injection, schedule: Q04DX002 (ip), vehicle: saline with Tween-80 95 % of control

O=C(Nc1cccc(F)c1)Nc1ccc([N+](=O)[O-])cc1Cl
inactive: [7] 101 % of control | [8] 100 % of control | [9] 103 % of control

CCOC(=O)c1ccc(C(C)=O)o1
inactive: [1] 100 % of control | [2] 106 % of control | [3] 94 % of control

COc1ccc2c(C)cc(C)nc2n1
inactive: dose: 75.0 mg/kg/injection, schedule: Q04DX002 (ip), vehicle: saline 104 % of control | dose: 150.0 mg/kg/injection, schedule: Q04DX002 (ip), vehicle: saline 112 % of control | dose: 300.0 mg/kg/injection, schedule: Q04DX002 (ip), vehicle: saline 108 % of control

CCOC(=O)C[n+]1ccc(C(=O)c2cc3ccccc3[nH]2)cc1
inactive: [4] 93 % of control | [5] 92 % of control

C/C(CC(=O)N1CCCCC1)=N\NC(N)=S
inactive: [10] 97 % of control | [11] 103 % of control | [12] 94 % of control

CC(C)Oc1ccc2c(c1)N(CCC1CCCCN1)c1ccccc1S2 (stereo unspecified)
inactive: dose: 12.5 mg/kg/injection, schedule: Q01DX009 (ip), vehicle: Klucel (hydroxypropylcellulose) (HPC) 101 % of control | dose: 25.0 mg/kg/injection, schedule: Q01DX009 (ip), vehicle: Klucel (hydroxypropylcellulose) (HPC) 103 % of control

CCCCCCCCCCCCN=C(N)N/C(N)=N/S(=O)(=O)c1ccc(OCCC)cc1
inactive: [13] 106 % of control | [14] 100 % of control | [15] 95 % of control

C[C@]12CC[C@H]3[C@@H](CC[C@]4(O)C[C@@H](O)CC[C@]34/C=N/O)[C@@]1(O)CC[C@@H]2C1=COC(=O)C1
inactive: dose: 1.87 mg/kg/injection, schedule: Q01DX009 (ip), vehicle: carboxymethylcellulose (CMC) 93 % of control | dose: 3.75 mg/kg/injection, schedule: Q01DX009 (ip), vehicle: carboxymethylcellulose (CMC) 104 % of control | dose: 7.5 mg/kg/injection, schedule: Q01DX009 (ip), vehicle: carboxymethylcellulose (CMC) 106 % of control | dose: 30.0 mg/kg/injection, schedule: Q01DX009 (ip), vehicle: carboxymethylcellulose (CMC) 104 % of control | dose: 60.0 mg/kg/injection, schedule: Q01DX009 (ip), vehicle: carboxymethylcellulose (CMC) 93 % of control

O=C1NC(c2ccc3ccccc3n2)Nc2ccccc21 (stereo unspecified)
inactive: [16] 92 % of control | [7] 93 % of control | dose: 150.0 mg/kg/injection, schedule: Q01DX009 (ip), vehicle: Klucel (hydroxypropylcellulose) (HPC) 90 % of control

CN(C)c1ccc2c(c1)C(=NO)c1cc(N(C)C)ccc1-2
inactive: [1] 104 % of control | [2] 96 % of control | [3] 91 % of control

C=CCOC(=O)Nc1ccc(S(=O)(=O)N(C)C)cc1
inactive: [10] 97 % of control | [11] 93 % of control | [12] 97 % of control

NC(N)=Nc1ccc(/C=C2\C=Cc3ccccc32)cc1
inactive: [11] 101 % of control

CC(C)NP(=O)(NC(C)C)OC1CC(C)(C)N(O)C(C)(C)C1
inactive: dose: 6.25 mg/kg/injection, schedule: Q01DX001 (ip), vehicle: water 92 % of control | dose: 12.5 mg/kg/injection, schedule: Q01DX001 (ip), vehicle: water 96 % of control | dose: 25.0 mg/kg/injection, schedule: Q01DX001 (ip), vehicle: water 99 % of control | dose: 50.0 mg/kg/injection, schedule: Q01DX001 (ip), vehicle: water 94 % of control

O=C(Nc1ccc(F)c([N+](=O)[O-])c1)Nc1ccccc1C(F)(F)F
inactive: [4] 90 % of control | [5] 96 % of control | [6] 97 % of control

O=C1Nc2cccc3cc([N+](=O)[O-])cc1c23
inactive: dose: 100.0 mg/kg/injection, schedule: Q01DX001 (ip), vehicle: saline 101 % of control | dose: 200.0 mg/kg/injection, schedule: Q01DX001 (ip), vehicle: saline 93 % of control | dose: 400.0 mg/kg/injection, schedule: Q01DX001 (ip), vehicle: saline 103 % of control

C=CCc1ccc(OCCNC(=O)Nc2ccc(C)cc2[N+](=O)[O-])c(OC)c1
inactive: [16] 87 % of control | [7] 98 % of control | [1] 91 % of control | [8] 98 % of control | [2] 96 % of control | [3] 96 % of control

CCOC(=O)Nc1ccccn1
inactive: [13] 100 % of control | [14] 103 % of control | [15] 92 % of control
